Test results from patent publication US4966169A, “Process for manufacturing cigarettes” (priority 1988, dated 1990).
Entries after “also recorded” stand apart in the source; their conditions may differ. Read-outs that look alike come from different tables or passages of the source.

What was measured:
[1] = cited from earlier work
[2] = tested on: rats; details: cited from earlier work
[3] = tested on: bronchial epithelium; assay: Examples 2 and 3: cyclohexanol vapor inhalation, whole-body autoradiography after [14C] NNN; assay type: in vivo, C57BL/6J mouse; details: inhaled 5 min
Procedure: The mouse was kept in the closed beaker for about five minutes as the bottom of the beaker was maintained at 50° C. in a water bath. […] Handbook of Chemistry and Physics (1979) at D-203 to D-217.
One hour later, the mouse was anesthetized lightly by ether and frozen by immersion in dry ice/hexane. […] Control experiments were conducted for comparison purposes and radioactivity was detected in the respiratory epithelium in the controls.
Example 2 was duplicated, except that the mouse was kept in the closed beaker for five minutes as the bottom of the beaker was maintained at 26° C. in a water bath. […] After injection as in Example 2, the mouse was processed in the same manner as in Example 2.

[4] = tested on: human exposure; assay: OSHA time weighted average (TWA) exposure limit; details: TWA 200 mg/m^3
Description: On the other hand, the quantity of alcohol transferred and inhaled by the smoker must be at a safe amount and less than the maximum volumetric concentrations permitted for each alcohol by any applicable government regulation, such as in the United States those of the U.S. Occupational Safety and Health Administration (OSHA) Time Weighted Average (TWA). Other helpful guidelines are published by the Flavoring Extract Manufacturers' Association (Generally Regarded As Safe list), and the Hunter Committee from Great Britain. If a substance has not been evaluated in the literature, the toxicity of that substance (alcohol) should be evaluated before use. Compounds or alcohols herein are analyzed individually and the toxicity of a mixture of compounds is assumed to be the toxicity of the most toxic individual substance in the compound. It is expected that 1-1000 micrograms (and more particularly approximately 800 micrograms) of the blocking alcohol(s) would be needed on the rag tobacco for a cigarette containing 400-1200 milligrams (and more particularly approximately 800 milligrams) of tobacco. Yet another way of defining the quantity of alcohol is its concentration in air, which should be about 0.1% to 0.001% (see Example 3, supra). […]

[5] = tested on: human exposure; details: cited from earlier work
[6] = tested on: nitrosamines such as NNN and metabolites thereof in mammalian tissues; assay: Inhibition of selective localization of nitrosamines (general statements); assay type: in vivo; details: qualitative statement
[7] = tested on: tissue macromolecules; details: cited from earlier work; for metabolic activation: rats, hamsters and monkeys; for binding of metabolites to macromolecules: tracheobronchial and nasal mucosa, kidney, liver, sublingual and submaxillary glands, esophagus, melanin of the eye
[8] = tested on: rodents; details: cited from earlier work; for carcinogenicity: rat, in vivo
[9] = tested on: formation of nitrosamines on epithelial membranes; details: cited from earlier work
[10] = tested on: salivary duct epithelium; details: oral intubation 20 min before [14C] NNN
Procedure: (§1) One hour later, the mice were anesthetized lightly with ether and frozen by immersion in dry ice/hexane. Twenty u-thick whole-body sagittal sections of the frozen mice were taken onto Scotch tape and were then processed for whole-body autoradiography by known methods. See W. Waddell et al, Drug Fate and Metabolism: Methods and Techniques, E.R. Garrett and J. L. Hirtz, Eds. […] Photometric density in areas of the developed autoradiographs was measured with an ADG Instruments photometer and a photocell with an aperture of three mm lying on the easel of a photographic enlarger. The X-ray film was placed in the enlarger and raised to produce a magnification of thirty-five times on the easel.
(§2) NNN. […] (Twenty minutes is the average time it takes for alcohols introduced by oral intubation into mice to reach the peak blood level.)
(§3) The number within each bar thereof represents the dose in g/kg of that alcohol which was administered orally twenty minutes before the [^14 C] NNN was given intravenously. The mice were frozen one hour after receiving the [^14 C] NNN. The means for each mouse were from fifteen measurements on random areas of that site (five absorbancies on each of three autoradiographs) after setting blood in each on zero. The control value is the mean from six mice; the n-butanol at 1 g/kg is from two mice; the other means are from one mouse.

[11] = tested on: periportal and central areas of the liver; details: oral intubation 20 min before [14C] NNN
Procedure: as §1, §2, §3

[12] = tested on: bronchial epithelium; assay: Example 1: whole-body autoradiography, inhibition of localization of [14C] NNN radioactivity in bronchial epithelium; assay type: in vivo, C57BL/6J mice; details: for dose relation of reduction in photometric density: oral alcohols
Procedure: as §1, §2, §3

[13] = tested on: nitrosamine localization; assay: Examples 4 and 5: intraperitoneal imidazole, whole-body autoradiography after [14C] NNN; assay type: in vivo, C57BL/6J mouse
Procedure: An adult male C57BL/6J mouse was injected intraperitoneally with 0.02 ml/g body weight of a solution of imidazole in water. The imidazole solution concentration was such that 0.05 g of imidazole was delivered per kg of body weight. […] See Example 1.
Example 4 was duplicated except that the adult mouse was injected intraperitoneally with 0.02 ml/g body weight of a solution of imidazole in water, wherein the solution concentration was such that 0.25 g of imidazole was delivered per kg of body weight.

[14] = tested on: adult human; details: cited from earlier work
[15] = tested on: tumor development; details: cited from earlier work

CC(O)CCO (stereo not drawn) [1,3 Butanediol]
Vapor Pressure ([1]; 20° C.): .06 mmHg

CCC(CC)CO [2-Ethyl butyl alcohol]
Vapor Pressure ([1]; 20° C.): 0.9 mmHg

CC(C)CC(C)O (stereo not drawn) [4-methyl-2-pentanol]
Acute Oral LD50 ([2]; rats, oral): 2600 mg/kg

CCCCCCC(C)O (stereo not drawn) [Capryl alcohol]
Vapor Pressure ([1]; 32.8° C.): 1 mmHg

CCCCCCCCCCCCCCCCO [Cetyl alcohol]
Vapor Pressure ([1]; 122.7° C.): 1 mmHg
Acute Oral LD50 ([2]; rats, oral): 20000 mg/kg

OCC=Cc1ccccc1 [Cinnamyl alcohol]
Vapor Pressure ([1]; 72.6° C.): 1 mmHg

OC1CCCCC1 [Cyclohexanol]
radioactivity in bronchial epithelium ([3]; 26° C., 0.001% in air): No radioactivity was detected
radioactivity in bronchial epithelium ([3]; 50° C., 0.01% in air): No radioactivity was detected
Vapor Pressure ([1]; 21° C.): 1 mmHg
concentration in cigarette smoke at TWA limit of OSHA [4]: 63 micrograms/cigarette
Toxicity (TWA OSHA) ([5]; 8 h work day, 40 h work week): 200 mg/m^3
atmosphere concentration considered safe by OSHA ([5]; eight continuous hours): two hundred
Acute Oral LD50 ([2]; rats, oral): 2060 mg/kg

CCCCCCCCCCCCO [Lauryl alcohol]
Vapor Pressure ([1]; 91° C.): 1 mmHg

CC1CCC(C(C)C)C(O)C1 (stereo not drawn) [Menthol, reference compound]
Vapor Pressure ([1]; 56° C.): 1 mmHg
inhibition of nitrosamine localization [6]: does not have the nitrosamine blocking effect; also recorded: does not inhibit nitrosamine localization
Acute Oral LD50 ([2]; rat, in vivo, po): 3180 mg/kg

CN(CCCC(=O)c1cccnc1)N=O [NNK, 4(methylnitrosamino)-1-(3-pyridyl)-1-butanone]
metabolic activation [7]: most likely starts with a-carbon hydroxylation
binding of metabolites to macromolecules [7]: bind to macromolecules
carcinogenicity [8]: powerful environmental carcinogens

O=NN1CCCC1c1cccnc1 (stereo not drawn) [NNN, Nnitrosonornicotine]
metabolism ([7]; F-344 rat esophagus vs other tissues): preferentially catalyzes hydroxylation at the a-carbon of NNN adjacent to the pyridine ring
metabolic activation [7]: most likely starts with a-carbon hydroxylation
binding of metabolites to macromolecules [7]: bind to macromolecules
retention of radioactivity vs sites of tumor formation ([7]; whole-body autoradiography, adult male C57BL/6J mice, [14C] NNN): striking correlation
tumor induction ([8]; F-344 rats, drinking water): esophageal tumors have been induced
sites of tumor formation ([8]; nasal cavity, salivary duct, esophagus, bronchial epithelium and liver): induces tumor formation at five sites
carcinogenicity [8]: powerful environmental carcinogens
carcinogenesis ([8]; rodents, olfactory epithelium, lung, salivary glands): induce carcinogenesis in the olfactory epithelium, lung, salivary glands

CC(C)(O)C(C)(C)O [Pinacol]
Vapor Pressure ([1]; 44° C.): 1 mmHg

CCCCCCCCCCCCCCCCCCO [Stearyl alcohol]
Vapor Pressure ([1]; 50° C.): 1 mmHg

O=C1O[C@H]([C@@H](O)CO)C(O)=C1O [Vitamin C]
formation of nitrosamines on epithelial membranes [9]: prevent the formation of nitrosamines

S=C=NCc1ccccc1 [benzylisothiocyanate]
inhibition of nitrosamine localization [6]: found to delocalize nitrosamines

C[S+](C)[O-] [dimethylsulfoxide (DMSO), dimethylsulfoxide]
inhibition of nitrosamine localization [6]: found to delocalize nitrosamines

CCO [ethanol]
reduction of localization of radioactivity in salivary duct epithelium [10]: reduced
reduction of localization of radioactivity in periportal and central areas of the liver [11]: reduced
dose relation of reduction in photometric density [12]: dose related
reduction of localization of radioactivity in bronchial epithelium ([12]; oral intubation 20 min before [14C] NNN, ethanol 1 and 5 g/kg, butanols 0.2 and 1 g/kg): reduced
Acute Oral LD50 ([2]; rats, oral): 14000 mg/kg

c1c[nH]cn1 [imidazole]
nitrosamine delocalization relative to control mouse ([13]; 0.05 g/kg intraperitoneal, 20 min before [14C] NNN): Significant nitrosamine delocalization
nitrosamine delocalization relative to control mouse ([13]; 0.25 g/kg intraperitoneal): significant delocalization of nitrosamine
inhibition of nitrosamine localization [6]: found to delocalize nitrosamines

CCCCCCCCCCO [n-Decyl alcohol]
Vapor Pressure ([1]; 69.5° C.): 1 mmHg

CCCCCCCCCO [n-Nonyl alcohol]
Vapor Pressure ([1]; 59.5° C.): 1 mmHg

CCCCCO [n-amyl, n-amyl alcohol]
Acute Oral LD50 ([2]; rat, in vivo, po): 3030 mg/kg

CCCCO [n-butanol]
dose relation of reduction in photometric density [12]: dose related
Acute Oral LD50 ([2]; rats, oral): 790 mg/kg

CN1CCCC1c1cccnc1 (stereo not drawn) [nicotine]
estimated acutely fatal oral dose [14]: one

c1cn[nH]c1 [pyrazole]
inhibition of nitrosamine localization [6]: found to delocalize nitrosamines

CC1=C(/C=C/C(C)=C/C=C/C(C)=C/CO)C(C)(C)CCC1 [retinol, reference compound]
Acute Oral LD50 ([2]; rat, in vivo, po): 2000 mg/kg

CC(C)(C)O [t-butanol]
localization of [14C] NNN in bronchial epithelium ([12]; at the high dosage (1 g/kg), oral): almost completely abolished
inhibition ranking in bronchial epithelium (FIG. 1) ([12]; comparison of ethanol, n-butanol, t-butanol): greatest inhibition
dose relation of reduction in photometric density [12]: dose related

Dipropylene glycol monomethyl
Vapor Pressure ([1]; 20° C.): .3 mmHg

Methyl cyclohexanol
Vapor Pressure ([1]; 30° C.): 1.5 mmHg

Vitamin A
tumor development [15]: inhibit tumor development

Vitamin E
formation of nitrosamines on epithelial membranes [9]: prevent the formation of nitrosamines
